# From patent US11944701B2, “Protection of materials by sphingosine based compounds” (STICHTING VU, priority 2012, dated 2024)
# Read-outs that look alike come from different tables or passages of the source.
# Tests used:
# Streptococcus gordonii = test: Antifouling activity of sphingolipids coated on HA discs; assay type: cell-based; conditions: HA discs coated with 100 μg/ml lipid; 2 hr with bacteria
# Protocol: (§1) Six different sphingolipids including PHS, PHS phosphate, Sphingosine, Sphinganine, Stearoyl PHS and Sphingomyelin were tested for their antifouling properties against two primary colonizers i.e.—Streptococcus sanguinis and Streptococcus gordonii and a late colonizer, Streptococcus mutans.
# (§2) HA discs were incubated 0/N with 100 μg/ml lipid at 37° C. Subsequently, the discs were washed to remove unbound lipid. Then the lipid-coated HA discs were incubated for 2 hr with 1.5 ml of ˜10^7 cells/ml. After washing, the adherent bacterial cells were desorbed by sonication and transferred to agar plates. After 48 hr CFUs were counted.
# Streptococcus mutans = test: as above; assay type: cell-based; conditions: HA discs coated with 100 μg/ml lipid; 2 hr with bacteria
# Protocol: as §1, §2
# [1] = Erosion test: weight loss of HAP disks after exposure to citric acid; conditions: for protection of HAP: 100 μg/ml in Tris-Tween, 3 hrs
# Protocol: Dental enamel consists largely of hydroxyapatite crystals (Ca10(PO4)6(OH)2. Sintered at high temperatures, hydroxyapatite discs can be produced with physical characteristics (e.g. hardness and density) resembling those of enamel (Anderson et al, 2004), which can be used to determine erosive properties of solutions (Jensdottir et al, 2005) by measuring weight loss from hydroxyapatite after immersion in an erosive (acidic) solution.
# Hydroxyapatite discs, sintered at 1250° C. and with a relative density of 98% were obtained from Swerea, Stockholm, Sweden. The lateral and bottom surfaces of the discs were covered with nail polish so that one side remained uncoated. Next, discs were cleaned by sanding with sand paper (3M734 P600) rinsed with demineralised water, dried at 37° C. overnight and weighed to determine the initial mass. Hydroxyapatite discs were placed in the wells of 12 well cell culture plates (Greiner bio-one, Frickenhausen, Germany), to which was added 1.5 ml of phytosphingosine (PHS in various concentrations dissolved in saliva buffer (2 mM potassium phosphate, 50 mM KCl, 1 mM CaCl2, 0.1 mM MgCl2, pH 6.8) under gently shaking for 3 hours at 37° C. After three times rinsing with 4 ml saliva buffer to remove unbound PHS, discs were placed in new wells with 4 ml of 0.1 M citric acid (pH=3.0). After 30 minutes citric acid was pipetted off and discs were rinsed 3 times with 4 ml demineralized water, dried overnight at 37° C. and weighted. The difference in weight before and after the erosive treatment was taken as a measure for erosion. The experiments were conducted in triplicate and were repeated at least two times. Formation of saliva pellicle on HAP discs was achieved as follows: saliva was collected without conscious stimulation, as described previously (Navazesh, 1993). Saliva was cleared from cellular debris by centrifugation at 10,000 g for 10 minutes. The supernatant (HWS) was collected and used for coating HAP disks with a salivary pellicle. For this purpose, HAP disks were incubated with 4 ml HWS at 37° C. After 3 hrs, disks were rinsed 3 times with distilled water to remove unbound protein. Subsequently, the protective effect of PHS on saliva-coated HAP was tested as described above for bare HAP.
# Protection of HAP against erosion was determined essentially as described by Jensdottir et al, (2005), by measuring weight loss from HAP disks before and after immersion in an erosive (acidic) solution using a Sartorius GD503 analytical precision scale. For the erosion experiments, the lateral and bottom surfaces of the disks were covered with nail polish leaving the circular upper surface uncoated. Next, disks were cleaned by sanding with fine sand paper (3M734 P600), rinsed with demineralised water, dried at 37° C. overnight and weighed to determine the initial mass. Stock solutions of lipids were prepared in ethanol to a concentration of 5 mg/ml. These stock solutions were diluted further to the desired concentration in the working buffer. Working solutions of PHS were prepared in saliva buffer (2 mM potassium phosphate, 50 mM KCl, 1 mM CaCl2, 0.1 mM MgCl2, pH 6.8) or in 20 mM Tris (pH 6.8) supplemented with 0.1% Tween 20 (Tris-Tween). HAP disks were placed in the wells of 12 well cell culture plates (Greiner bio-one, Frickenhausen, Germany), to which 1.5 ml of the lipid solutions was added and incubated under gentle shaking for 3 hours at 37° C. After three times rinsing with 4 ml of the incubation buffer to remove unbound lipid, disks were incubated with 4 ml of 0.1 M citric acid (pH=3.0). […] The difference in weight before and after the erosive treatment was taken as a measure for erosion. All incubations were conducted in triplicate and each experiment was repeated at least two times.
# [2] = PHS adsorption to HAP (OPA fluorimetry)
# Protocol: PHS was dissolved in concentrations ranging from 0 to 500 μg/ml in 20 mM Tris buffer supplemented with 0.1% Tween 20 (pH 6.8) (Tris-Tween). Tween 20 was added to keep PHS in solution. Disks were incubated with the PHS solutions for 18 h, and then rinsed with demin water (3 times) to remove unbound PHS. HAP bound PHS was extracted by incubation with 1.5 ml methanol for 90 minutes. Since nail polish dissolved in methanol, in the binding experiments HAP disks were used without nail polish. It was verified that no PHS was adsorbed to the plastic, by conducting control incubations without disks. After evaporation, the residue was dissolved in 250 μl of methanol. To 100 of this solution 25 μl ortho-phtaldialdehyde reagent (OPA, Sigma-Aldrich) to enable fluorimetric quantification of bound PHS. Fluorescence was measured on a Fluostar microplate reader at excitation/emission wavelengths of 380 nm/450 nm. Absolute quantities were determined by reference to a standard curve of PHS. All incubations were conducted in triplicate and the experiment was repeated two times.
# Solubility of PHS = assay type: physicochemical
# [3] = in saliva buffer; cited from earlier work
# Streptococcus sanguinis = test: Antifouling activity of sphingolipids coated on HA discs; assay type: cell-based; conditions: HA discs coated with 100 μg/ml lipid; 2 hr with bacteria
# Protocol: as §1, §2
molecule,measurement,setting,value
"CCCCCCCCCCCCCCC(O)[C@@H](O)[C@@H](N)COP(=O)(O)O (stereo partly drawn) [PHS phosphate, 4-hydroxysphinganine-1-phosphate]",reduction in bacterial adherence,Streptococcus gordonii,1.5 log values
same,antifouling activity (reduction of adherent bacteria),Streptococcus mutans,~2 log CFU/ml
same,protection of HAP,[1]; 0.1 M citric acid 30 minutes,protection that was comparable to that by PHS
"CCCCCCCCCCCCCC[C@@H](O)[C@@H](O)[C@@H](N)CO [PHS, phytosphingosine]",PHS adsorbed onto the surface of the disk,"[2]; at maximal adsorption (60 μg/ml and higher), Tris-Tween",approximately 12 μg
same,time to equilibrium of the initial fast phase of binding,"[2]; biphasic time course, gradual increase over the next 15 hrs",≤ 1 h
same,PHS concentration at which maximal adsorption occurred,[2]; in Tris-Tween,≥ 60 µg/mL
same,adsorption to saliva-incubated HAP disks compared to control,"[2]; overnight incubation with saliva, then PHS, control saliva buffer",even higher amounts of PHS adsorbed
same,share of the maximal adsorption level reached,[2]; within 5 minutes,> 65%
same,amount adsorbed,"[2]; within one minute, fixed PHS concentration",substantial amount
same,solubility,"Solubility of PHS; in Tris-Tween, concentration before and after centrifugation 10 minutes 10,000 g",completely soluble
same,solubility,Solubility of PHS; in water,moderately soluble
same,effect on the pH of citric acid,[1],no effect
same,protection when present in the erosive fluid,"[1]; 0.1 M citric acid in the presence of 100 ug/ml PHS, 30 minutes, untreated HAP disks",protects against erosion even with untreated HAP disks
same,duration of the protective effect,"[1]; 1 hour exposure to citric acid, 50 μg/ml PHS (FIG. 3)",still protected
same,protection of disks covered with a salivary pellicle (CHWS) versus controls,"[1]; 20 hrs CHWS, then 100 μg/ml PHS in TrisT 3 hrs, 0.1 M citric acid 30 minutes",protected to the same extent
same,protection against dissolution by citric acid relative to the control disks,"[1]; HAP discs pretreated, then 0.1 M citric acid (pH=3) for 30 minutes",more than 80%
same,PHS concentration at which virtually maximal protection was achieved,"[1]; HAP disks incubated 3 hrs with PHS, citric acid 30 minutes",> 20 µg/mL
same,protection of saliva-coated HAP versus uncoated HAP,[1]; HAP disks preincubated with human saliva (salivary pellicle),to the same extent
same,protection at 500 and 50 μg/ml,[1]; PHS 500 and 50 μg/ml,comparable protection
same,protection at 5 ug/ml,[1]; PHS concentration lowered to 5 ug/ml,steep decrease in protection
same,protection with PHS dissolved in Tris-Tween compared with saliva buffer,[1]; PHS dissolved in Tris-Tween,essentially the same protection
same,less weight loss compared to the untreated control disks,"[1]; PHS in saliva buffer, subsequent erosive challenge 0.1 M citric acid (pH=3) 30 minutes",70-80%
same,protection by pre-treatment,"[1]; pretreated 100 ug/ml 3 hours, 0.1 M citric acid (pH=3.0) 30 minutes",protects against the erosive effects of citric acid
same,effect of solvent used for stock solution on protection,"[1]; stock 5 mg/ml in DMSO or ethanol, with or without sonication, 3 hr incubation",No difference
same,binding level at which protection is maximal,"[1]; submaximal binding, 0.1 M citric acid (pH 3.0) 30 minutes",approximately 6 μg per disk
same,solubility,[3],poorly soluble
Di-myroistyl phosphatidylcholine [reference compound],protection of HAP,[1]; 0.1 M citric acid 30 minutes,did not protect HAP
4-hydroxysphinganine-1-phosphate [PHS phosphate],protection against subsequent erosive attack by citric acid,[1]; 200 μg/ml in saliva buffer,did not afford protection
"CCCCCCCCCCCCCCCCCC(=O)N[C@@H](CO)[C@H](O)C(O)CCCCCCCCCCCCCC (stereo partly drawn) [Stearoyl PHS, N-stearoyl 4-4-hydroxysphinganine]",antifouling activity (reduction of adherent bacteria),Streptococcus mutans,~2 log CFU/ml
sphingomyelin [reference compound],reduction in bacterial adherence,Streptococcus sanguinis,1 log value
same,protection of HAP,[1]; 0.1 M citric acid 30 minutes,did not protect HAP
CCCCCCCCCCCCC/C=C/[C@@H](O)[C@@H](N)CO [sphingosine],protection of HAP,[1]; 0.1 M citric acid 30 minutes,protection that was comparable to that by PHS
CCCCCCCCCCCCCCC[C@@H](O)[C@@H](N)CO [Sphinganine],reduction in bacterial adherence,Streptococcus gordonii,1.5 log values
same,reduction of adherent bacteria,Streptococcus mutans,3 log
same,reduction in bacterial adherence,Streptococcus sanguinis,2 log value
same,protection of HAP,[1]; 0.1 M citric acid 30 minutes,protection that was comparable to that by PHS
same,effect of phosphate in the buffer on efficacy,[1]; FIG. 8,"more effective when provided in a buffer not containing, or containing a minimal amount of, phosphate"
same,protection against citric acid,[1]; used in a Tris buffer (FIG. 8),protected against citric acid
same,protection against citric acid,[1]; used in a buffer containing phosphate ions,not when used in a buffer containing phosphate ions
